Laboratory results published in patent US5792780A, “Azole compounds, their production and use” (Takeda Chemical Industries, Ltd., priority 1993, dated 1998).

Columns and labels:
Candida albicans TA = test: protective effect against experimental infection in mice (survival rate 7 days after infection); assay type: in vivo, Crj:CDF1 mice; conditions: po, 168 h, survival 7 days after infection
Procedure: (§1) Test Method: Five-week-old Crj:CDF1 mice were inoculated with the minimum lethal dose of Candida albicans TA intravenously. The test compound was suspended in a solution of 0.2% or 0.5% sodium carboxymethylcellulose (CMC). The suspension was administered orally once immediately after infection. The activity was expressed in terms of ED50 values calculated by the Reed and Muench method from the survival rate 7 days after infection.
as §1, with “of” for “of 0.2% or”

[1] = tested on: Candida albicans IFO 0583; test: growth inhibition zone, paper disc agar diffusion; assay type: cell-based; conditions: IFO0583, 48 h, Table 6, Medium A, 1000 μg/ml, 28° C., two-day culture, read-out: Diameter of growth-inhibition zone
Procedure: Evaluation of the antifungal activities of the compound of the present invention was conducted by the following method: a sheet of filter paper disc (manufactured by Toyo Seisakusho, 8 mm in diameter) soaked in a 1000 μg/ml solution of a compound of the present invention in methanol was placed on an agar plate containing various fungi, which was incubated at 28° C. for two days, and the diameter of the growth inhibition zone around the filter paper disc was measured. The following culture media were used:
A: yeast nitrogen base agar medium (pH 7.0)
B: peptone-yeast extract-glucose agar medium (pH 7.0)

[2] = Table 7, P.O. once immediately after infection, 0.2% CMC
[3] = Table 8, P.O. once immediately after infection, 0.5% CMC
[4] = Table 9, compounds of formula (VI), P.O. once immediately after infection, 0.5% CMC

Compound | zone of inhibition at 1000 µg/mL [1] | ED50 (Candida albicans TA; [3]) | further results
C[C@@H](N1CC(=O)N(c2ccc(F)cc2F)C1=O)[C@](O)(Cn1cncn1)c1ccc(F)cc1F [Compound 3, 1-[(1R,2R)-2-(2,4-difluorophenyl)-2-hydroxy-1-methyl-3-(1H-1,2,4-triazol-1-yl)propyl]-3-(2,4-difluorophenyl)-2,4-imidazolidinedione] | 41 mm | – | ED50 (Candida albicans TA; [2]): 2 mg/kg
C[C@@H](N1CCN(c2ccc(F)cc2)C1=O)[C@](O)(Cn1cncn1)c1ccc(F)cc1F [Compound 5, 1-[(1R,2R)-2-(2,4-difluorophenyl)-2-hydroxy-1-methyl-3-(1H-1,2,4-triazol-1-yl)propyl]-3-(4-fluorophenyl)-2-imidazolidinone] | 47 mm | – | –
C[C@@H](N1CCN(c2ccc(OCC(F)(F)C(F)F)cc2)C1=O)[C@](O)(Cn1cncn1)c1ccc(F)cc1F [Compound 6, 1-[(1R,2R)-2-(2,4-difluorophenyl)-2-hydroxy-1-methyl-3-(1H-1,2,4-triazol-1-yl)propyl]-3-[4-(2,2,3,3-tetrafluoropropoxy)phenyl]-2-imidazolidinone] | 36 mm | 0.71 mg/kg | –
C[C@@H](N1CCN(c2ccc(OC(F)(F)C(F)F)cc2)C1=O)[C@](O)(Cn1cncn1)c1ccc(F)cc1F [Compound 7, 1-[(1R,2R)-2-(2,4-difluorophenyl)-2-hydroxy-1-methyl-3-(1H-1,2,4-triazol-1-yl)propyl]-3-[4-(1,1,2,2-tetrafluoroethoxy)phenyl]-2-imidazolidinone] | 35 mm | 0.35 mg/kg | ED50 (Candida albicans TA; [2]): 0.65 mg/kg
C[C@@H](N1CCN(c2ccc(OCC(F)(F)C(F)(F)F)cc2)C1=O)[C@](O)(Cn1cncn1)c1ccc(F)cc1F [Compound 8, 1-[(1R,2R)-2-(2,4-difluorophenyl)-2-hydroxy-1-methyl-3-(1H-1,2,4-triazol-1-yl)propyl]-3-[4-(2,2,3,3,3-pentafluoropropoxy)phenyl]-2-imidazolidinone] | 28 mm | – | ED50 (Candida albicans TA; [2]): 2 mg/kg
C[C@@H](N1CCN(c2ccc(OCC(F)(F)F)cc2)C1=O)[C@](O)(Cn1cncn1)c1ccc(F)cc1F [Compound 9, 1-[(1R,2R)-2-(2,4-difluorophenyl)-2-hydroxy-1-methyl-3-(1H-1,2,4-triazol-1-yl)propyl]-3-[4-(2,2,2-trifluoroethoxy)phenyl]-2-imidazolidinone] | 41 mm | – | ED50 (Candida albicans TA; [2]): 0.65 mg/kg
C[C@@H](N1CCN(c2ccc(Cl)cc2)C1=O)[C@](O)(Cn1cncn1)c1ccc(F)cc1F [Compound 10, 1-(4-chlorophenyl)-3-[(1R,2R)-2-(2,4-difluorophenyl)-2-hydroxy-1-methyl-3-(1H-1,2,4-triazol-1-yl)propyl]-2-imidazolidinone] | 42 mm | – | ED50 (Candida albicans TA; [2]): 1.8 mg/kg
C[C@@H](N1CC(=O)N(c2ccc(OCC(F)(F)C(F)F)cc2)CC1=O)[C@](O)(Cn1cncn1)c1ccc(F)cc1F [Compound 11, 1-[(1R,2R)-2-(2,4-difluorophenyl)-2-hydroxy-1-methyl-3-(1H-1,2,4-triazol-1-yl)propyl]-4-[4-(2,2,3,3-tetrafluoropropoxy)phenyl]-2,5-piperazinedione] | 31 mm | – | –
C[C@@H](N1CC(=O)N(c2ccc(OC(F)(F)C(F)F)cc2)CC1=O)[C@](O)(Cn1cncn1)c1ccc(F)cc1F [Compound 12, 1-[(1R,2R)-2-(2,4-difluorophenyl)-2-hydroxy-1-methyl-3-(1H-1,2,4-triazol-1-yl)propyl]-4-[4-(1,1,2,2-tetrafluoroethoxy)phenyl]-2,5-peperazinedione] | – | 2.8 mg/kg | –
C[C@@H](N1CCN(c2ccc(OCC(F)(F)C(F)F)cc2)C(=O)C1=O)[C@](O)(Cn1cncn1)c1ccc(F)cc1F [Compound 14, 1-[(1R,2R)-2-(2,4-difluorophenyl)-2-hydroxy-1-methyl-3-(1H-1,2,4-triazol-1-yl)propyl]-4-[4-(2,2,3,3-tetrafluoropropoxy)phenyl]-2,3-piperazinedione] | – | 2.8 mg/kg | –
C[C@@H](N1CCN(c2ccc(OC(F)(F)C(F)F)cc2)C(=O)C1=O)[C@](O)(Cn1cncn1)c1ccc(F)cc1F [Compound 15, 1-[(1R,2R)-2-(2,4-difluorophenyl)-2-hydroxy-1-methyl-3-(1H-1,2,4-triazol-1-yl)propyl]-4-[4-(1,1,2,2-tetrafluoroethoxy)phenyl]-2,3-piperazinedione] | – | 2 mg/kg | –
C[C@@H](N1CCN(c2ccc(OC(F)(F)C(F)F)cc2)C1=O)[C@](O)(Cn1cncn1)c1ccccc1F [Compound 16, 1-[(1R,2R)-2-(2-fluorophenyl)-2-hydroxy-1-methyl-3-(1H-1,2,4-triazol-1-yl)propyl]-3-[4-(1,1,2,2-tetrafluoroethoxy)phenyl]-2-imidazolidinone] | – | 0.35 mg/kg | –
C[C@@H](N1CCN(c2ccc(OCC(F)(F)C(F)F)cc2)C1=O)[C@](O)(Cn1cncn1)c1ccccc1F [Compound 17, 1-[(1R,2R)-2-(2-fluorophenyl)-2-hydroxy-1-methyl-3-(1H-1,2,4-triazol-1-yl)propyl]-3-[4-(2,2,3,3-tetrafluoropropoxy)phenyl]-2-imidazolidinone] | – | 0.65 mg/kg | –
C[C@@H](N1CCN(c2ccc(OC(F)(F)C(F)F)cc2)C1=O)[C@](O)(Cn1cncn1)c1ccc(F)cc1 [Compound 18, 1-[(1R,2R)-2-(4-fluorophenyl)-2-hydroxy-1-methyl-3-(1H-1,2,4-triazol-1-yl)propyl]-3-[4-(1,1,2,2-tetrafluoroethoxy)phenyl]-2-imidazolidinone] | – | 0.35 mg/kg | –
C[C@@H](N1CCN(c2ccc(OCC(F)(F)C(F)F)cc2)C1=O)[C@](O)(Cn1cncn1)c1ccc(F)cc1 [Compound 19, 1-[(1R,2R)-2-(4-fluorophenyl)-2-hydroxy-1-methyl-3-(1H-1,2,4-triazol-1-yl)propyl]-3-[4-(2,2,3,3-tetrafluoropropoxy)phenyl]-2-imidazolidinone] | – | 0.77 mg/kg | –
C[C@@H](n1ccn(-c2ccc(OC(F)(F)C(F)F)cc2)c1=O)[C@](O)(Cn1cncn1)c1ccc(F)cc1 [Reference Example 45, 1-[(1R,2R)-2-(4-fluorophenyl)-2-hydroxy-1-methyl-3-(1H-1,2,4-triazol-1-yl)propyl]-3-[4-(1,1,2,2-tetrafluoroethoxy)phenyl]-2(1H,3H)-imidazolone] | – | – | ED50 (Candida albicans TA; [4]): 0.18 mg/kg
C[C@@H](n1ccn(-c2ccc(OCC(F)(F)C(F)F)cc2)c1=O)[C@](O)(Cn1cncn1)c1ccc(F)cc1 [Reference Example 46, 1-[(1R,2R)-2-(4-fluorophenyl)-2-hydroxy-1-methyl-3-(1H-1,2,4-triazol-1-yl)propyl]-3-[4-(2,2,3,3-tetrafluoropropoxy)phenyl]-2(1H,3H)-imidazolone] | – | – | ED50 (Candida albicans TA; [4]): 0.32 mg/kg
C[C@@H](n1ccn(-c2ccc(OC(F)(F)C(F)F)cc2)c1=O)[C@](O)(Cn1cncn1)c1ccccc1F [Reference Example 49, 1-[(1R,2R)-2-(2-fluorophenyl)-2-hydroxy-1-methyl-3-(1H-1,2,4-triazol-1-yl)propyl]-3-[4-(1,1,2,2-tetrafluoroethoxy)phenyl]-2(1H,3H)-imidazolone] | – | – | ED50 (Candida albicans TA; [4]): 0.18 mg/kg
C[C@@H](n1ccn(-c2ccc(OCC(F)(F)C(F)F)cc2)c1=O)[C@](O)(Cn1cncn1)c1ccccc1F [Reference Example 50, 1-[(1R,2R)-2-(2-fluorophenyl)-2-hydroxy-1-methyl-3-(1H-1,2,4-triazol-1-yl)propyl]-3-[4-(2,2,3,3-tetrafluoropropoxy)phenyl]-2(1H,3H)-imidazolone] | – | – | ED50 (Candida albicans TA; [4]): 0.32 mg/kg
